Reference: patent publication US7825146B2, “Sulfonamide derivative having isoxazole ring” (Shionogi & Co., Ltd., priority 2003, dated 2010)

Assays:
[1] = target: T1, MMP-2 (Homo sapiens, UniProt P08253); assay: Assay for inhibitory activities on MMPs (fluorogenic MOCAc peptide substrate): MMP-2; format: biochemical; settings: MMP-2 purchased from Calbiochem-Novabiochem
T1 construct: purchased Calbiochem-Novabiochem International, Inc
T1 sequence (P08253 110-660): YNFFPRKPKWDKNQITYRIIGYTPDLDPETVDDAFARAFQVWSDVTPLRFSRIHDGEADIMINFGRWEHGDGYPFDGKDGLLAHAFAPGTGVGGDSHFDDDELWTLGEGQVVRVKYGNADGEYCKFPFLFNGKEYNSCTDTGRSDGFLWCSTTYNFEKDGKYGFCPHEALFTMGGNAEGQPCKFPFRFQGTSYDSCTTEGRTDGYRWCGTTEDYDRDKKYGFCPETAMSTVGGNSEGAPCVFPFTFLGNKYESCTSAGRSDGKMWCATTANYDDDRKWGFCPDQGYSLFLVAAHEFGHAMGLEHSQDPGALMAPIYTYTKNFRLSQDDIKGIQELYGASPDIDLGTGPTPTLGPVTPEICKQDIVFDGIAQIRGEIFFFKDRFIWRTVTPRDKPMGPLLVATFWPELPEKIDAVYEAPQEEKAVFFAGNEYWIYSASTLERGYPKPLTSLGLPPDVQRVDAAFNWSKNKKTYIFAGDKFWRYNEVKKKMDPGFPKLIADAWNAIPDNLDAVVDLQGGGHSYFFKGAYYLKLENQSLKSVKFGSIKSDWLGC
Experimental: MMP-2 was purchased from Calbiochem-Novabiochem International, Inc.
(§1) The enzymatic activity on MMPs was analyzed by the method described in “C. Graham Knight, Frances Willenbrock and Gillian Murphy: A novel coumarin-labelled peptide for sensitive continuous assays of the matrix metalloproteinases: FEBS LETT., 296, (1992), 263-266”. The substrate: MOCAc-Pro-Leu-Gly-Leu-A2Pr(DNP)-Ala-Arg-NH2 was purchased from Peptide Institute, Inc., Osaka, Japan. The measurement of the inhibitory activities (IC50) was carried out by the following four methods; • (A) Reaction with substrate, enzyme (MMPs) and inhibitor • (B) Reaction with substrate and inhibitor, without enzyme • (C) Reaction with substrate and enzyme (MMPs), without inhibitor • (D) Reaction with substrate only IC50 values were calculated by using the following formula and each fluorescence values of above four methods (A to D).
(§2) The value of inhibitory activity against MMP-2, MMP-8, MMP-9, MMP-12, and MMP-13 measured by above mentioned methods are shown in Table 36, 37, 38, 39, and 40 respectively.

[2] = target: T2, MMP-12 (Homo sapiens, UniProt P39900); assay: Assay for inhibitory activities on MMPs (fluorogenic MOCAc peptide substrate): MMP-12; format: biochemical; settings: catalytic domain 100Phe-263Gly
T2 construct: In regard to MMP-12, catalytic domain(^100Phe˜^263Gly) was amplified with RT-PCR; His-tag; enterokinase digestion-site; made in house
Experimental: (§3) In regard to MMP-12, catalytic domain(^100Phe˜^263Gly) was amplified with RT-PCR from Human Placenta Total RNA. This was cloned in Escherichia. coli expression vector pTrc99AHE inserted with His-tag sequence and enterokinase digestion-site, induced and expressed by IPTG (Isopropyl-β-D-thiogalactopyranoside) and expressed in a insoluble fraction. Isolation of MMP-12 from an insoluble fraction was carried out by dissolving in modifier (6M urea) by a usual method and purification with metal chelate chromatography (Ni Chelateing Sepharose). And then removing modifier (6M urea) with dialysis and refolding of the enzyme spontaneously gave activated MMP-12.
as §1, §2

[3] = target: T3, MMP-13 (Homo sapiens, UniProt P45452); assay: Assay for inhibitory activities on MMPs (fluorogenic MOCAc peptide substrate): MMP-13; format: biochemical; settings: Table 40
T3 construct: catalytic domain (^104Tyr˜^267Gly) was amplified with RT-PCR; His-tag; enterokinase digestion-site; made in house
Experimental: as §3, with “MMP-13, mRNA was prepared from carcinoma cell SW1353 derived from human cartilage stimulate by IL-1, TNF and” for “MMP-12,”, “domain (^104Tyr˜^267Gly)” for “domain(^100Phe˜^263Gly)”, “RT-PCR.” for “RT-PCR from Human Placenta Total RNA.”, “MMP-13” for “MMP-12”, “dialyze” for “dialysis”, “MMP-13.” for “MMP-12.”
as §1, §2

[4] = target: T4, MMP-9 (Homo sapiens, UniProt P14780); assay: Assay for inhibitory activities on MMPs (fluorogenic MOCAc peptide substrate): MMP-9; format: biochemical; settings: from HT1080 cells, activated by TPCK-Trypsin
T4 construct: made in house; host or cells: endogenous secretion from human fibrosarcoma HT1080 cells (TPA-stimulated), purified from conditioned medium
Text: MMP-9 was isolated and purified by procedures described in as follows: Yasunori Okada, Yukio Gonoji, Katsumi Naka, Katsuro Tomita, Isao Nakanishi, Kazushi Iwata, Kyoko Yamashita, and Taro Hayakawa: Matrix metalloproteinase 9 (92-kDa gelatinase/type IV collagenase) from HT1080 human fibrosarcoma cells. Purification and activation of the precursor and enzymic properties J. Biol. Chem., 1992, 267 21712-21719, in combination with others: 1) Yasunori Okada, Tatsuhisa Morodomi, Jan J, Enghild, ko Suzuki, Atsushi Yasui, Isao Nakanishi, Guy Salvesen and Hideaki Nagase: Matrix metalloproteinase 2 from human rheumatoid synovial fibroblasts. Purification and activation of the precursor and enzymic properties. Eur. J. Biochem. 1990, 194 721-730; 2) Robin V Ward, Rosalind M Hembry; John J Reynolds and Gillian Murphy: The purification of tissue inhibitor of metalloproteinase-2 from its 72 kDa progelatinase complex. Biochem. J. 1991 278 179-187. In detail, human fibrosarcoma ATCC HT1080 cell line was cultured to confluent in Dulbecco's Modified Medium (DMEM) containing 10% fetal-calf serum at 37° C. for 48 hours. Subsequently, the medium of confluent culture was changed to serum-free DMEM medium. To obtain MMP-9, Phorbol-12-myristate-13-acetate (TPA) must be added to this serum-free DMEM medium at a concentration of 50 ng/ml. The TPA treated medium was centrifuged at 3000 rpm for 15 min and the supernatant was concentrated to 450 ml by a Toyo-Roshi UP-20 apparatus with an ultrafiltration membrane. Then, proMMP-9 in this concentrated solution was purified by using columns of Gelatin-Sepharose and Concanavalin A-Sepharose. The pool containing proMMP-9 was dialyzed, concentrated (Toyo-Roshi UP-20) and applied to columns of Sephacryl S-200 and Green A matrix for the separation from TIMPs. The obtained proMMP-9 fraction was activated by TPCK-Trypsin (Final conc. 3 μg/50 μl React Mix.).
as §1, §2

[5] = target: T5, MMP-8 (Homo sapiens, UniProt P22894); assay: Assay for inhibitory activities on MMPs (fluorogenic MOCAc peptide substrate): MMP-8; format: biochemical; settings: catalytic domain 99Phe-262Gly
T5 construct: In regard to MMP-8, catalytic domain (^99Phe˜^262Gly) was amplified with PCR; His-tag; enterokinase digestion-site; made in house
Text: In regard to MMP-8, catalytic domain (^99Phe˜^262Gly) was amplified with PCR using commercial available Human Bone Marrow cDNA. This was cloned in Escherichia. coli expression vector pTrc99AHE inserted with His-tag sequence and enterokinase digestion-site, induced and expressed by IPTG (Isdpropyl-β-D-thiogalactopyranoside) and expressed in a insoluble fraction (Thau F. Ho, M. Walid Qoronfleh, Robert C. Wahl, Trica A. Pulvino, Karen J. Vavra, Joe Falvo, Tracey M. Banks, Patricia G. Brake and Richard B. Ciccarelli: Gene expression, purification and characterization of recombinant human neutrophil collagenase. Gene 146, (1994) 297-301, Prepared by the a improved method of this material). Isolation of MMP-8 from an insoluble fraction was carried out by dissolving in modifier (6M urea) by a usual method and purification with metal chelate chromatography. And then removing modifier (6M urea) with dialysis and refolding of the enzyme spontaneously gave activated MMP-8.
as §1, §2

T4 sequence (P14780 107-707 limits assumed): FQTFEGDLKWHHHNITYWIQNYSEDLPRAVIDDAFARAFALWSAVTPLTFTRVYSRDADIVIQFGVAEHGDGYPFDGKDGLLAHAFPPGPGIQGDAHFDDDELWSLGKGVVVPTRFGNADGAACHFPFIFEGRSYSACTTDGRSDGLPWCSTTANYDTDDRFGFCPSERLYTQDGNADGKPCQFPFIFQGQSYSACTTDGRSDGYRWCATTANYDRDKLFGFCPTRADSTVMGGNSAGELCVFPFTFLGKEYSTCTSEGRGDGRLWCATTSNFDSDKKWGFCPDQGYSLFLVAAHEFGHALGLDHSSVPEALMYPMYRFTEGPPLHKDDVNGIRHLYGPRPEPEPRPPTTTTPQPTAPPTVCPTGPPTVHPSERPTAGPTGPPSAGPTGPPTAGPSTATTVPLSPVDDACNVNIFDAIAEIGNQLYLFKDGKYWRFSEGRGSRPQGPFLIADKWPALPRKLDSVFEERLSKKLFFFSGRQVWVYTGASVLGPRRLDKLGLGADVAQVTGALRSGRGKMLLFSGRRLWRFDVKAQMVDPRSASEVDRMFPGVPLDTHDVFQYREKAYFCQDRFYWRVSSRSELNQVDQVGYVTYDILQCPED
T2 sequence (P39900 100-263): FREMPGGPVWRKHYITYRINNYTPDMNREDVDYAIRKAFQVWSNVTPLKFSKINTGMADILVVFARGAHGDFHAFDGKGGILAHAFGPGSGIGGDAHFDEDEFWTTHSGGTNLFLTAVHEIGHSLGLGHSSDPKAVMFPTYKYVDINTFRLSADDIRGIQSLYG
T5 sequence (P22894 99-262): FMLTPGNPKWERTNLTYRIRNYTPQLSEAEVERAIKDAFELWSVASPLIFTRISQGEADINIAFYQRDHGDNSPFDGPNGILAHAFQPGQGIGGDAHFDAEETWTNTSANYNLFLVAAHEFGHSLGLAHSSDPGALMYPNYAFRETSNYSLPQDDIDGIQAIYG

Structure (SMILES) | IC50 [1] | IC50 [2] | IC50 [3] | IC50 [4] | IC50 [5] | melting point
CC(C)c1ccc(-c2cc(-c3ccc(S(=O)(=O)N[C@@H](C(=O)O)C(C)C)cc3)on2)cc1 [Example A-16] | 0.0767 nM | 0.000687 µM | 0.000328 µM | – | – | –
CC(C)[C@@H](NS(=O)(=O)c1ccc(-c2cc(-c3ccc(OC(F)(F)F)cc3)no2)cc1)C(=O)O [Example A-18] | 0.0674 nM | 0.000376 µM | 0.000263 µM | 0.00052 µM | – | –
CC(C)[C@@H](NS(=O)(=O)c1ccc(-c2cc(-c3ccc(SC(F)(F)F)cc3)no2)cc1)C(=O)O [Example A-32] | – | 0.000463 µM | 0.000193 µM | 0.000609 µM | – | –
Cc1ccc(-c2cc(-c3ccc(S(=O)(=O)N[C@@H](C(=O)O)C(C)C)cc3)on2)s1 [Example A-33] | 0.0971 nM | – | – | – | 0.00291 µM | –
Cc1ccc(-c2cc(-c3ccc(S(=O)(=O)N[C@H](C)C(=O)O)cc3)no2)cc1 [Example C-1] | – | 0.000707 µM | – | – | – | 218 to 221 °C
CSc1ccc(-c2cc(-c3ccc(S(=O)(=O)N[C@H](C)C(=O)O)cc3)no2)cc1 [Example C-4] | 0.0934 nM | 0.000377 µM | 0.000404 µM | – | – | –
CSc1ccc(-c2cc(-c3ccc(S(=O)(=O)N[C@@H](C(=O)O)C(C)C)cc3)no2)cc1 [Example C-10] | 0.0619 nM | 0.000201 µM | 0.000282 µM | – | 0.0039 µM | –
CCc1ccc(-c2cc(-c3ccc(S(=O)(=O)N[C@@H](C(=O)O)C(C)C)cc3)no2)cc1 [Example C-12] | 0.0832 nM | 0.000316 µM | 0.000266 µM | 0.000532 µM | – | –
CCCc1ccc(-c2cc(-c3ccc(S(=O)(=O)N[C@@H](C(=O)O)C(C)C)cc3)no2)cc1 [Example C-14] | 0.0533 nM | 0.000216 µM | 0.00015 µM | – | – | –
CC(C)c1ccc(-c2cc(-c3ccc(S(=O)(=O)N[C@@H](C(=O)O)C(C)C)cc3)no2)cc1 [Example C-15] | 0.049 nM | 0.00015 µM | 0.000136 µM | – | – | –
CC(C)[C@@H](NS(=O)(=O)c1ccc(-c2cc(-c3ccc(Cl)cc3)on2)cc1)C(=O)O [Example C-20] | – | 0.000366 µM | – | 0.00092 µM | – | –
CC(C)[C@@H](NS(=O)(=O)c1ccc(-c2cc(-c3ccc(Br)cc3)on2)cc1)C(=O)O [Example C-22] | – | 0.000275 µM | – | 0.000706 µM | – | –
CC(C)[C@@H](NS(=O)(=O)c1ccc(-c2cc(-c3ccc(OC(F)(F)F)cc3)on2)cc1)C(=O)O [Example C-25] | – | 0.000196 µM | 0.000223 µM | 0.00032 µM | – | –
Cc1ccc(-c2cc(-c3ccc(S(=O)(=O)N[C@@H](C(=O)O)C(C)C)cc3)no2)s1 [Example C-29] | 0.0449 nM | 0.000368 µM | 0.000701 µM | 0.00034 µM | 0.000567 µM | –
CC(C)[C@@H](NS(=O)(=O)c1ccc(-c2cc(-c3ccc(Cl)s3)on2)cc1)C(=O)O [Example C-33] | – | 0.000535 µM | – | 0.000467 µM | 0.000781 µM | –
CC(C)[C@@H](NS(=O)(=O)c1ccc(-c2cc(-c3ccc(Cl)c(F)c3)on2)cc1)C(=O)O [Example C-36] | – | 0.000245 µM | – | 0.000741 µM | – | –
Cc1ccc(-c2cc(-c3ccc(S(=O)(=O)N[C@H](Cc4ccccc4)C(=O)O)cc3)no2)s1 [Example C-124] | 0.0926 nM | – | 0.000528 µM | 0.000585 µM | 0.00178 µM | –
